Twelve compounds from patent US20260070945A1, “MACROCYCLIC IMMUNOMODULATORS” (Bristol-Myers Squibb Company, priority 2022, published 2026) can be followed below.

Where a SMILES comes first, the peptide text is derived from it. Bridges are numbered along the chain shown (N, C = ends). [ ]: non-standard residue; d: D form. The star is where a group is joined. ξ: configuration not given here. Bip = N[C@@H](Cc1ccc(-c2ccccc2)cc1)C(=O)O; Phe(3-Me) = Cc1cccc(C[C@H](N)C(=O)O)c1; Cyclopropanecarbonyl = O=C(C1CC1)*; Val(3-OH) = CC(C)(O)[C@H](N)C(=O)O; hArg = N=C(N)NCCCC[C@H](N)C(=O)O; Cha = N[C@@H](CC1CCCCC1)C(=O)O; Cit = NC(=O)NCCC[C@H](N)C(=O)O; NMeN = CN[C@@H](CC(N)=O)C(=O)O; Thr(3ξ) = CC(O)[C@H](N)C(=O)O; 12Ado = NCCCCCCCCCCCC(=O)O; Carboxymethyl = O=C(O)C*; NMeA = CN[C@@H](C)C(=O)O; Orn = NCCC[C@H](N)C(=O)O; Aun = NCCCCCCCCCCC(=O)O; Dab = NCC[C@H](N)C(=O)O; Dap = NC[C@H](N)C(=O)O

The target of this assay is T1, PD-1/PD-L1 interaction (PE-labeled human PD-L1-Ig binding to Jurkat cell line over-expressing human PD-1) (Homo sapiens, UniProt Q15116).
T1 construct: expressed in transfected cells; host or cells: Jurkat
T1 sequence (Q15116 25-288): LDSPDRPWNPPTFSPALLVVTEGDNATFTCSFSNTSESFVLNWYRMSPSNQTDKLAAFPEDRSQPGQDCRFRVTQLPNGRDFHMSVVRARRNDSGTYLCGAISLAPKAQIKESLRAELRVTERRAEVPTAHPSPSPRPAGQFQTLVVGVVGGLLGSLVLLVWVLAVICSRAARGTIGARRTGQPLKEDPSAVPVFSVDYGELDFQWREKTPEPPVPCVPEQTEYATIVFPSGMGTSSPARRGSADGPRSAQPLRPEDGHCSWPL
The assay can be described thus: Jurkat-PD-1 Cell Binding High-Content Screening Assay (CBA). Particulars: Jurkat-hPD-1 cells, PE-labeled PD-L1-Ig 20 nM final; read-out: Jurkat HPD1 PDL1 IC50. In short, it runs like this: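 Jurkat-hPD-1 cells (8×10^3/well) in DMEM with 10% fetal calf serum were preincubated with compound for 2 h at 37 °C. PE-labeled PD-L1-Ig was then added at 20 nM final for 1 h. Cells were fixed in paraformaldehyde with Hoechst 33342, washed and imaged by high-content imaging.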
As usually defined, the IC50 is the midpoint of a concentration-inhibition curve. Take `Cc1cccc(C[C@@H]2NC(=O)[C@H](CC(=O)O)NC(=O)[C@H](Cc3ccc(OCC(=O)O)cc3)NC(=O)[C@H](CCCNC(=N)N)NC(=O)CSC[C@@H](C(=O)N[C@@H](CCN)C(=O)NCCCCCCCCCCC(=O)O)NC(=O)[C@H](C(C)O)NC(=O)[C@H](CO)NC(=O)[C@H](CC3CCCCC3)NC(=O)[C@H](CCN)NC(=O)[C@@H](CC(C)C)NC(=O)[C@H](C)N(C)C(=O)[C@H](Cc3ccc(OCC(=O)O)cc3)NC(=O)[C@H](Cc3ccc(-c4ccccc4)cc3)NC(=O)[C@H](Cc3ccc(OCC(=O)O)cc3)NC2=O)c1` (stereo partly drawn) [Example 2370] ({CH2CO}-RY(Carboxymethyl)D[Phe(3-Me)]Y(Carboxymethyl)[Bip]Y(Carboxymethyl)[NMeA][dL][Dab][Cha]S[Thr(3ξ)]C[Dab][Aun]-OH; thioether N-14): the IC50 amounted to 0.0358 µM.
For `CC(=O)NCCCC[C@@H]1NC(=O)[C@H](Cc2ccc(-c3ccccc3)cc2)NC(=O)[C@H](C(C)C)NC(=O)[C@H](Cc2cccc(C)c2)NC(=O)[C@H](CC(=O)O)NC(=O)[C@H](Cc2ccc(OCC(=O)O)cc2)NC(=O)[C@H](Cc2ccc(OCC(=O)O)cc2)NC(=O)CSC[C@@H](C(=O)N[C@@H](CCN)C(=O)NCCCCCCCCCCC(=O)O)NC(=O)[C@H](CO)NC(=O)[C@H](C(C)O)NC(=O)[C@H](CC2CCCCC2)NC(=O)[C@H](CCN)NC(=O)[C@@H](CC(C)C)NC(=O)[C@H](C)N(C)C1=O` (stereo partly drawn) [Example 2371] ({CH2CO}-Y(Carboxymethyl)Y(Carboxymethyl)D[Phe(3-Me)]V[Bip]K(Ac)[NMeA][dL][Dab][Cha][Thr(3ξ)]SC[Dab][Aun]-OH; thioether N-14) the value was 0.0268 µM.
As to `Cc1cccc(C[C@@H]2NC(=O)[C@H](CC(=O)O)NC(=O)[C@H](Cc3ccc(OCC(=O)O)cc3)NC(=O)[C@H](Cc3ccc(OCC(=O)O)cc3)NC(=O)CSC[C@@H](C(=O)N[C@@H](CCCCN)C(=O)NCCCCCCCCCCC(=O)O)NC(=O)[C@H](CN)NC(=O)[C@H](C(C)C)NC(=O)[C@H](CC3CCCCC3)NC(=O)[C@H](CCN)NC(=O)[C@@H](CC(C)C)NC(=O)[C@H](C)N(C)C(=O)[C@H](C(C)C)NC(=O)[C@H](Cc3ccc(-c4ccccc4)cc3)NC(=O)[C@H](C(C)C)NC2=O)c1` [Example 2376] ({CH2CO}-Y(Carboxymethyl)Y(Carboxymethyl)D[Phe(3-Me)]V[Bip]V[NMeA][dL][Dab][Cha]V[Dap]CK[Aun]-OH; thioether N-14), the IC50 was determined as 0.0209 µM.
For `CC(=O)NCCCC[C@@H]1NC(=O)[C@H](Cc2ccc(-c3ccccc3)cc2)NC(=O)[C@H](Cc2ccc(O)cc2)NC(=O)[C@H](Cc2cccc(C)c2)NC(=O)[C@H](CC(=O)O)NC(=O)[C@H](Cc2ccc(OCC(=O)O)cc2)NC(=O)[C@H](Cc2ccc(OCC(=O)O)cc2)NC(=O)CSC[C@@H](C(=O)NCCCCCCCCCCC(=O)O)NC(=O)[C@H](C(C)O)NC(=O)[C@H](C(C)C)NC(=O)[C@H](CC2CCCCC2)NC(=O)[C@H](CCN)NC(=O)[C@@H](CC(C)C)NC(=O)[C@H](C)N(C)C1=O` (stereo partly drawn) [Example 2379] ({CH2CO}-Y(Carboxymethyl)Y(Carboxymethyl)D[Phe(3-Me)]Y[Bip]K(Ac)[NMeA][dL][Dab][Cha]V[Thr(3ξ)]C[Aun]-OH; thioether N-14) the value was 0.0389 µM; for `CC(=O)NCCCC[C@@H]1NC(=O)[C@H](Cc2ccc(-c3ccccc3)cc2)NC(=O)[C@H](C(C)C)NC(=O)[C@H](Cc2cccc(C)c2)NC(=O)[C@H](CC(=O)O)NC(=O)[C@H](Cc2ccc(OCC(=O)O)cc2)NC(=O)[C@H](CCCNC(=N)N)NC(=O)CSC[C@@H](C(=O)N[C@@H](CCN)C(=O)NCCCCCCCCCCC(=O)O)NC(=O)[C@H](C(C)O)NC(=O)[C@H](C(C)C)NC(=O)[C@H](CC2CCCCC2)NC(=O)[C@H](CCN)NC(=O)[C@@H](CC(C)C)NC(=O)[C@H](C)N(C)C1=O` (stereo partly drawn) [Example 2380] ({CH2CO}-RY(Carboxymethyl)D[Phe(3-Me)]V[Bip]K(Ac)[NMeA][dL][Dab][Cha]V[Thr(3ξ)]C[Dab][Aun]-OH; thioether N-14), 0.0146 µM.
For `Cc1cccc(C[C@@H]2NC(=O)[C@H](CC(=O)O)NC(=O)[C@H](Cc3ccc(OCC(=O)O)cc3)NC(=O)[C@H](CCCNC(=N)N)NC(=O)CSC[C@@H](C(=O)N(C)[C@@H](CC(N)=O)C(=O)NCCCCCCCCCCC(=O)O)NC(=O)[C@H](C(C)O)NC(=O)[C@H](C(C)C)NC(=O)[C@H](CC3CCCCC3)NC(=O)[C@H](CCN)NC(=O)[C@@H](CC(C)C)NC(=O)[C@H](C)N(C)C(=O)[C@H](C(C)C)NC(=O)[C@H](Cc3ccc(-c4ccccc4)cc3)NC(=O)[C@H](C(C)C)NC2=O)c1` (stereo partly drawn) [Example 2381] ({CH2CO}-RY(Carboxymethyl)D[Phe(3-Me)]V[Bip]V[NMeA][dL][Dab][Cha]V[Thr(3ξ)]C[NMeN][Aun]-OH; thioether N-14) the value was 0.0338 µM; for `Cc1cccc(C[C@@H]2NC(=O)[C@H](CC(=O)O)NC(=O)[C@H](Cc3ccc(OCC(=O)O)cc3)NC(=O)[C@H](Cc3ccc(OCC(=O)O)cc3)NC(=O)CSC[C@@H](C(=O)N[C@@H](CO)C(=O)NCCCCCCCCCCC(=O)O)NC(=O)[C@H](C(C)O)NC(=O)[C@H](C(C)O)NC(=O)[C@H](CC3CCCCC3)NC(=O)[C@H](CCN)NC(=O)[C@@H](CC(C)C)NC(=O)[C@H](C)N(C)C(=O)[C@H](CCCNC(=N)N)NC(=O)[C@H](Cc3ccc(-c4ccccc4)cc3)NC(=O)[C@H](C(C)C)NC2=O)c1` (stereo partly drawn) [Example 2383] ({CH2CO}-Y(Carboxymethyl)Y(Carboxymethyl)D[Phe(3-Me)]V[Bip]R[NMeA][dL][Dab][Cha][Thr(3ξ)][Thr(3ξ)]CS[Aun]-OH; thioether N-14), 0.0153 µM; for `Cc1cccc(C[C@@H]2NC(=O)[C@H](CC(=O)O)NC(=O)[C@H](Cc3ccc(OCC(=O)O)cc3)NC(=O)[C@H](Cc3ccc(OCC(=O)O)cc3)NC(=O)CSC[C@@H](C(=O)N[C@@H](CO)C(=O)NCCCCCCCCCCC(=O)O)NC(=O)[C@H](C(C)O)NC(=O)[C@H](CN)NC(=O)[C@H](CC3CCCCC3)NC(=O)[C@H](CCN)NC(=O)[C@@H](CC(C)C)NC(=O)[C@H](C)N(C)C(=O)[C@H](CCCNC(=N)N)NC(=O)[C@H](Cc3ccc(-c4ccccc4)cc3)NC(=O)[C@H](C(C)C)NC2=O)c1` (stereo partly drawn) [Example 2384] ({CH2CO}-Y(Carboxymethyl)Y(Carboxymethyl)D[Phe(3-Me)]V[Bip]R[NMeA][dL][Dab][Cha][Dap][Thr(3ξ)]CS[Aun]-OH; thioether N-14), 0.0371 µM.
`CC(=O)NCCCC[C@@H]1NC(=O)[C@H](Cc2ccc(-c3ccccc3)cc2)NC(=O)[C@H](C(C)C)NC(=O)[C@H](Cc2cccc(C)c2)NC(=O)[C@H](CC(=O)O)NC(=O)[C@H](Cc2ccc(OCC(=O)O)cc2)NC(=O)[C@H](CCCNC(=N)N)NC(=O)CSC[C@@H](C(=O)N[C@H](CCC(=O)O)C(=O)NCCCCCCCCCCCC(=O)O)NC(=O)[C@H](C(C)O)NC(=O)[C@H](C(C)C)NC(=O)[C@H](CC2CCCCC2)NC(=O)[C@H](CCN)NC(=O)[C@@H](CC(C)C)NC(=O)[C@H](C)N(C)C1=O` (stereo partly drawn) [Example 2388] ({CH2CO}-RY(Carboxymethyl)D[Phe(3-Me)]V[Bip]K(Ac)[NMeA][dL][Dab][Cha]V[Thr(3ξ)]C[dE][12Ado]-OH; thioether N-14): the IC50 is 0.0083 µM.
In the case of `Cc1cccc(C[C@@H]2NC(=O)[C@H](CC(=O)O)NC(=O)[C@H](Cc3ccc(OCC(=O)O)cc3)NC(=O)[C@H](CCCNC(=N)N)NC(=O)CSC[C@@H](C(=O)N[C@H](CCC(=O)O)C(=O)NCCCCCCCCCCC(=O)O)NC(=O)[C@H](C(C)O)NC(=O)[C@H](C(C)C)NC(=O)[C@H](CC3CCCCC3)NC(=O)[C@H](CCN)NC(=O)[C@@H](CC(C)C)NC(=O)[C@H](C)N(C)C(=O)[C@H](CCCNC(N)=O)NC(=O)[C@H](Cc3ccc(-c4ccccc4)cc3)NC(=O)[C@H](C(C)C)NC2=O)c1` (stereo partly drawn) [Example 2392] ({CH2CO}-RY(Carboxymethyl)D[Phe(3-Me)]V[Bip][Cit][NMeA][dL][Dab][Cha]V[Thr(3ξ)]C[dE][Aun]-OH; thioether N-14) it was 0.0296 µM; in that of `Cc1cccc(C[C@@H]2NC(=O)[C@H](CC(=O)O)NC(=O)[C@H](Cc3ccc(OCC(=O)O)cc3)NC(=O)[C@H](C(C)O)NC(=O)CSC[C@@H](C(=O)N[C@@H](CCCN)C(=O)N[C@@H](CO)C(=O)NCCCCCCCCCCCC(=O)O)NC(=O)[C@H](CO)NC(=O)[C@H](C(C)(C)O)NC(=O)[C@H](CC3CCCCC3)NC(=O)[C@H](CCN)NC(=O)[C@@H](CC(C)C)NC(=O)[C@H](C)N(C)C(=O)[C@H](CCCNC(N)=O)NC(=O)[C@H](Cc3ccc(-c4ccccc4)cc3)NC(=O)[C@H](C(C)C)NC2=O)c1` (stereo partly drawn) [Example 2394] ({CH2CO}-[Thr(3ξ)]Y(Carboxymethyl)D[Phe(3-Me)]V[Bip][Cit][NMeA][dL][Dab][Cha][Val(3-OH)]SC[Orn]S[12Ado]-OH; thioether N-14), 0.0157 µM.
For the compound `Cc1cccc(C[C@@H]2NC(=O)[C@H](CC(=O)O)NC(=O)[C@H](Cc3ccc(OCC(=O)O)cc3)NC(=O)[C@H](CCCCNC(=N)N)NC(=O)CSC[C@@H](C(=O)N[C@@H](CCN)C(=O)NCCCCCCCCCCC(=O)O)NC(=O)[C@H](C(C)O)NC(=O)[C@H](C(C)C)NC(=O)[C@H](CC3CCCCC3)NC(=O)[C@H](CCN)NC(=O)[C@@H](CC(C)C)NC(=O)[C@H](C)N(C)C(=O)[C@H](CCCNC(=O)C3CC3)NC(=O)[C@H](Cc3ccc(-c4ccccc4)cc3)NC(=O)[C@H](Cc3ccc(O)cc3)NC2=O)c1` (stereo partly drawn) [Example 2398] ({CH2CO}-[hArg]Y(Carboxymethyl)D[Phe(3-Me)]Y[Bip][Orn](Cyclopropanecarbonyl)[NMeA][dL][Dab][Cha]V[Thr(3ξ)]C[Dab][Aun]-OH; thioether N-14), the IC50 amounted to 0.0166 µM.
